Converted amounts (≈) assume the structure as drawn. Where a name gives a salt, the structure may show the parent alone. Read-outs that look alike come from different tables or passages of the source.
How the values were obtained:
Southern Armyworm = assay: Southern armyworm test, third-instar larvae on treated Sieva lima bean leaves; type: in vivo, Spodoptera eridania (Cramer); details: for Mortality Rating Southern Armyworm: third-instar larvae; for LC50: Spodoptera eridania, read-out: LC50 Southern Armyworm; for LC50 Southern Armyworm: in vivo
Summary of the method: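 Sieva lima bean plants, primary leaves expanded to 1.91 cm, were dipped with agitation for three seconds in test material dissolved in 65% acetone, with further dilutions in acetone, then air-dried in a hood. A treated leaf was placed in a 9 cm petri dish on moist filter paper with 10 third-instar Spodoptera eridania larvae about 1 cm long. Dishes were covered and kept at 80° F. and 50% r.h. Mortality and feeding were assessed after two days.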

[1] = system: Tobacco Budworm 3rd Instar; assay: Tobacco budworm secondary test, third-instar larvae on treated cotton cotyledons; type: in vivo, Heliothis virescens (Fabricus)
Procedure: Three cotton plants with just expanded cotyledons are dipped in 1000 ppm solution and placed in the hood to dry. When dry, each cotyledon is cut in half, and 10 are each placed in a 28 g plastic medicine cup containing a 1.25 cm dental wick saturated with water, and one third-instar budworm larva is added. The cup is capped and held for three days at 80° F., 50% relative humidity, after which mortality counts are made.

Tobacco Budworm = assay: Tobacco budworm LC50 and FD50 (instar not stated); type: in vivo, Heliothis virescens (Fabricus)
Text: (§1) Test formulations and procedures used for evaluation are as follows:
FD50 = The concentration of insecticide required to reduce insect

[2] = system: Tobacco Budworm 1st Instar; assay: Tobacco budworm initial test, treated eggs / newly hatched (1st instar) larvae on treated cotton leaves; type: in vivo, Heliothis virescens (Fabricus)
Procedure: as §1
A. 100 mg of the test material is weighed, placed in a funnel over a 113 g narrow-mouth bottle, rinsed into the bottle with a 35 mL scoop of acetone, followed by a 35 mL scoop of water and another 35 mL scoop of acetone to yield 1000 ppm in 65% acetone. If the material is not soluble, it is broken up with a glass rod and used as a suspension.
B. This stock solution ("A") is used to make 300 ppm solutions or suspensions by pipetting 30 mL of "A" into a bottle containing 70 mL of 50% acetone to yield 300 ppm. Further dilutions in 50% acetone are made as required.
C. Tests requiring 10 ppm acetone solutions: 1 mL of "A" is pipetted into 99 mL of acetone to yield 10 ppm. Additional dilutions are made using 50% acetone as required.
Tobacco Budworm--Heliothis virescens (Fabricus)
A cotton plant with two true leaves expanded is dipped for three seconds with agitation in 300 ppm solution. A 1.27 to 1.91 cm square of cheesecloth with about 50 to 100 budworm eggs 0-24 hours old is also dipped in the test solution and placed on a leaf of the cotton plant, all being placed in the hood to dry. The leaf with the treated budworm eggs is removed from the plant and placed in a 226 g Dixie cup with a wet 5 cm piece of dental wick and covered with a lid. The other leaf is placed in a similar cup with a wick and a piece of cheesecloth infested with 50-100 newly hatched larvae is added before covering the cup with a lid. After three days at 80° F., 50% relative humidity, observations of egg hatch are made, as well as kill of newly hatched larvae, any inhibition of feeding, or interference of any sort with normal development.

[3] = Heliothis virescens; read-out: LC50 Tobacco Budworm

SMILES	Mortality Rating Southern Armyworm (Southern Armyworm; 10 ppm)	Mortality Rating Southern Armyworm (Southern Armyworm; 100 ppm)	Mortality Rating Southern Armyworm (Southern Armyworm; 1000 ppm)	LC50 (Southern Armyworm) [µg/mL]	LC50 Southern Armyworm (Southern Armyworm) [ppm]	Mortality Rating Tobacco Budworm 3rd Instar ([1]; 10 ppm)	Mortality Rating Tobacco Budworm 3rd Instar ([1]; 100 ppm)	Mortality Rating Tobacco Budworm 3rd Instar ([1]; 1000 ppm)	LC50 (Tobacco Budworm; [3]) [µg/mL]	Mortality Rating Tobacco Budworm 1st Instar ([2]; 300 ppm)	Mortality Rating Tobacco Budworm 1st Instar ([2]; 10 ppm)	Mortality Rating Tobacco Budworm 1st Instar ([2]; 100 ppm)	LC50 (Tobacco Budworm; Heliothis virescens, read-out: LC50 Tobacco Budworm) [µg/mL]	reduced feeding (R) Tobacco Budworm 1st Instar ([2]; 100 ppm)	reduced feeding (R) Tobacco Budworm 3rd Instar ([1]; 100 ppm)	reduced feeding (R) Southern Armyworm (Southern Armyworm; 100 ppm)
N=C(NN=Cc1ccc(C(F)(F)F)cc1)N(N=Cc1ccc(C(F)(F)F)cc1)C(=O)N1CCCC1 [CF3 / CF3 / (CH2)4]	9 (100%)	9 (100%)	9 (100%)	18 (≈ 36.1 µM)	14	0 (No effect)	4 (46-55%)	9 (100%)	1000 (≈ 2010 µM)	–	–	–	–	–	–	–
CCN(CC)C(=O)N(N=Cc1ccc(C(F)(F)F)cc1)C(=N)NN=Cc1ccc(C(F)(F)F)cc1 [CF3 / CF3 / C2 H5 / C2 H5]	7 (76-85%)	9 (100%)	9 (100%)	8 (≈ 16 µM)	12	–	–	4 (46-55%)	–	0 (No effect)	–	–	–	–	–	–
CCNC(=O)N(N=Cc1ccc(C(F)(F)F)cc1)C(=N)NN=Cc1ccc(C(F)(F)F)cc1 [CF3 / CF3 / C2 H5 / H]	–	0 (No effect)	9 (100%)	–	–	–	–	0 (No effect)	–	0 (No effect)	–	–	–	–	–	–
CN(C)C(=O)N(N=Cc1ccc(C(F)(F)F)cc1)C(=N)NN=Cc1ccc(C(F)(F)F)cc1 [CF3 / CF3 / CH3 / CH3]	8 (86-99%)	9 (100%)	9 (100%)	15 (≈ 31.8 µM)	–	0 (No effect)	9 (100%)	9 (100%)	96 (≈ 203 µM)	8 (86-99%)	0 (No effect)	6 (66-75%)	–	–	–	–
CNC(=O)N(N=Cc1ccc(C(F)(F)F)cc1)C(=N)NN=Cc1ccc(C(F)(F)F)cc1 [CF3 / CF3 / CH3 / H]	1 (11-25%)	9 (100%)	9 (100%)	5 (≈ 10.9 µM)	–	–	–	6 (66-75%)	–	8 (86-99%)	–	0 (No effect)	–	–	–	–
N=C(NN=Cc1ccc(C(F)(F)F)cc1)N(N=Cc1ccc(C(F)(F)F)cc1)C(=O)NCCCl [CF3 / CF3 / ClCH2 CH2 / H, allophanimidic acid, 4-(2-chloroethyl)-2-{[p-(trifluoromethyl)benzylidene]amino}-allophanimidicacid [p-(trifluoromethyl)benzylidene]hydrazide]	–	9 (100%)	9 (100%)	–	–	–	4 (46-55%)	9 (100%)	–	0 (No effect)	–	–	654 (≈ 1290 µM)	–	–	–
N=C(NN=Cc1ccc(C(F)(F)F)cc1)N(N=Cc1ccc(C(F)(F)F)cc1)C(=O)OCc1ccccc1 [CF3 / CF3 / drawing 59]	–	0 (No effect)	9 (100%)	–	–	–	–	0 (No effect)	–	0 (No effect)	–	–	–	–	–	–
N=C(NN=Cc1ccc(C(F)(F)F)cc1)NN=Cc1ccc(C(F)(F)F)cc1 [CF3 / HCl]	0 (No effect)	9 (100%)	9 (100%)	–	–	–	0 (No effect)	5 (56-65%)	–	9 (100%)	0 (No effect)	0 (No effect)	–	R	R	–
CN(C)C(=O)N(N=Cc1ccc(OC(F)(F)F)cc1)C(=N)NN=Cc1ccc(OC(F)(F)F)cc1 [CF3 O / CF3 O / CH3 / CH3]	9 (100%)	9 (100%)	9 (100%)	–	–	–	3 (36-45%)	9 (100%)	77 (≈ 153 µM)	–	–	–	–	–	–	–
N=C(NN=Cc1ccc(Cl)cc1)NN=Cc1ccc(Cl)cc1 [Cl / Base]	0 (No effect)	0 (No effect)	9 (100%)	–	–	–	–	0 (No effect)	–	5 (56-65%)	–	–	–	–	–	–
N=C(NN=Cc1ccc(Cl)cc1)NN=Cc1ccc(Br)cc1 [Cl / Br / HCl]	–	2 (26-35%)	9 (100%)	–	–	–	–	0 (No effect)	–	0 (No effect)	–	–	–	–	–	R
CN(C)C(=O)N(N=Cc1ccc(Cl)cc1)C(=N)NN=Cc1ccc(Cl)cc1 [Cl / Cl / CH3 / CH3]	–	0 (No effect)	9 (100%)	–	–	–	0 (No effect)	0 (No effect)	–	0 (No effect)	–	–	–	–	–	–
N=C(NN=Cc1ccc(F)cc1)NN=Cc1ccc(F)cc1 [F / B]	–	2 (26-35%)	9 (100%)	–	–	–	–	3 (36-45%)	–	0 (No effect)	–	0 (No effect)	–	–	–	–
CN(C)C(=O)N(N=Cc1ccc(OC(F)(F)C(Cl)Cl)cc1)C(=N)NN=Cc1ccc(OC(F)(F)C(Cl)Cl)cc1 [HCCl2 CF2 O / HCCl2 CF2 O / CH3 / CH3]	–	9 (100%)	9 (100%)	26 (≈ 41 µM)	–	–	2 (26-35%)	0 (No effect)	140 (≈ 221 µM)	–	–	–	–	–	–	–
N=C(NN=Cc1ccc(OC(F)(F)C(F)F)cc1)NN=Cc1ccc(OC(F)(F)C(F)F)cc1 [HCF2 CF2 O / B, 1,3-bis{[p-(tetrafluoroethoxy)benzylidene]-amino}guanidine]	0 (No effect)	9 (100%)	9 (100%)	–	–	–	0 (No effect)	9 (100%)	–	9 (100%)	–	0 (No effect)	–	R	–	–
N=C(NN=Cc1ccc(OC(F)F)cc1)NN=Cc1ccc(OC(F)F)cc1 [HCF2 O / B]	0 (No effect)	6 (66-75%)	9 (100%)	–	–	–	–	0 (No effect)	–	0 (No effect)	–	–	–	–	–	–
CN(C)C(=O)N(N=Cc1ccc(OC(F)F)cc1)C(=N)NN=Cc1ccc(OC(F)F)cc1 [HCF2 O / HCF2 O / CH3 / CH3]	0 (No effect)	9 (100%)	9 (100%)	75 (≈ 160 µM)	–	–	–	0 (No effect)	–	0 (No effect)	–	–	–	–	–	–
CNC(=O)N(N=Cc1ccc(OC(F)F)cc1)C(=N)NN=Cc1ccc(OC(F)F)cc1 [HCF2 O / HCF2 O / CH3 / H]	–	0 (No effect)	9 (100%)	–	–	–	–	0 (No effect)	–	7 (76-85%)	–	–	–	–	–	–
N=C(NN=Cc1ccc(OC(F)F)cc1)NN=Cc1ccc(OC(F)F)cc1 [HCF2 O / S]	0 (No effect)	8 (86-99%)	9 (100%)	–	–	–	–	0 (No effect)	–	0 (No effect)	–	–	–	–	–	–
CN(C)C(=O)N(N=Cc1ccc(OC(F)(F)C(F)Cl)cc1)C(=N)NN=Cc1ccc(OC(F)(F)C(F)Cl)cc1 (centres unmarked) [drawing 40 / drawing 41 / CH3 / CH3]	9 (100%)	9 (100%)	9 (100%)	–	–	0 (No effect)	4 (46-55%)	9 (100%)	201 (≈ 334 µM)	–	–	–	–	–	–	–

From US4575560A, “Insecticidal diaminoguanidine hydrazone compounds” (American Cyanamid Company, priority 1985, dated 1986)
